In patent publication US11089783B2, “2-(het)aryl-substituted fused heterocycle derivatives as pesticides” (Bayer Aktiengesellschaft, priority 2017, dated 2021):

How the values were obtained:
Assay type in all cases: in vivo
Phaedon cochleariae = Phaedon cochleariae spray test (PHAECO), Chinese cabbage leaf discs; conditions: Phaedon cochleariae, foliar, 168 h; for pest or weed control at 100 g/ha: 7 days (7 dat), read-out: efficacy
Procedure, shortened: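 Chinese cabbage (Brassica pekinensis) leaf discs sprayed with compound in water with 1000 ppm emulsifier, then after drying infested with Phaedon cochleariae larvae. Efficacy (% larvae killed) scored after 7 days or the chosen interval.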

Myzus persicae = Myzus persicae spray test (MYZUPE), Chinese cabbage leaf discs; conditions: Myzus persicae, foliar, 120 h; for Emax at 4 g/ha: MYZUPE, 5 dat, read-out: % efficacy
Procedure, shortened: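 Leaf discs of Chinese cabbage carrying all stages of green peach aphid were sprayed with compound formulated in solvent and diluted with water containing emulsifier at 1000 ppm. Percent efficacy (100% = all aphids dead) was scored after 5 days or after the desired time.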

Nezara viridula = Nezara viridula spray test (NEZARA / NEZAVI); conditions: Nezara viridula, 96 h, 4 g/ha, 4 dat, read-out: % efficacy
Procedure, shortened: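 Barley plants infested with Nezara viridula larvae were sprayed with active ingredient in solvent/emulsifier water (1000 ppm emulsifier; ammonium salt or penetrant at 1000 ppm if added). Efficacy scored as % mortality after the set time (100% = all bugs killed).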

Ctenocephalides felis [1] = assay: Ctenocephalides felis in vitro contact test with adult cat fleas; conditions: 5 μg/cm^2 (=500 g/ha), after 48 h
Description: For the coating of the test tubes, 9 mg of active ingredient are first dissolved in 1 ml of acetone p.a. and then diluted to the desired concentration with acetone p.a. 250 μl of the solution are distributed homogeneously on the inner walls and the base of a 25 ml glass tube by turning and rocking on an orbital shaker (rocking rotation at 30 rpm for 2 h). With 900 ppm of active ingredient solution and internal surface area 44.7 cm^2, given homogeneous distribution, an area-based dose of 5 μg/cm^2 is achieved. After the solvent has evaporated off, the tubes are populated with 5-10 adult cat fleas (Ctenocephalides felis), sealed with a perforated plastic lid and incubated in a horizontal position at room temperature and ambient humidity. After 48 h, efficacy is determined. To this end, the tubes are stood upright and the fleas are knocked to the base of the tube. Fleas which remain motionless at the base or move in an uncoordinated manner are considered to be dead or moribund. […] 100% efficacy means that all the fleas were dead or moribund. 0% efficacy means that no fleas were harmed.

Lucilia cuprina = Lucilia cuprina test; conditions: 48 h, L1 larvae, after 2 days, read-out: efficacy (kill)
Procedure, shortened: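 About 20 L1 larvae of Lucilia cuprina placed on minced horsemeat containing compound (DMSO stock diluted in water to test concentration). Kill (%) scored after 2 days; 100% = all larvae dead, 0% = none dead.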

Tetranychus urticae = Tetranychus urticae spray test, OP-resistant (TETRUR)
Procedure, shortened: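 Bean leaf discs infested with all stages of OP-resistant Tetranychus urticae were sprayed with compound formulated in solvent and water containing 1000 ppm emulsifier. Efficacy was scored after 6 days as % mites killed (100% = all killed).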

Ctenocephalides felis [2] = assay: Ctenocephalides felis oral test; conditions: 100 ppm, after 2 days
Description: Solvent: dimethyl sulfoxide To produce a suitable active ingredient formulation, 10 mg of active ingredient are mixed with 0.5 ml of dimethyl sulfoxide. Dilution with citrated cattle blood gives the desired concentration. About 20 unfed adult cat fleas (Ctenocephalides felis) are placed into a chamber which is closed at the top and bottom with gauze. A metal cylinder whose bottom end is closed with parafilm is placed onto the chamber. The cylinder contains the blood/active ingredient formulation, which can be imbibed by the fleas through the parafilm membrane. After 2 days, the kill in % is determined. 100% means that all of the fleas have been killed; 0% means that none of the fleas have been killed.

[3] = 5 days (5 dat), read-out: efficacy
[4] = Tetranychus urticae, 144 h, TETRUR, 6 dat, read-out: % efficacy

SMILES	pest or weed control at 100 g/ha (Phaedon cochleariae) [%]	Emax at 4 g/ha (Myzus persicae) [%]	pest or weed control at 20 g/ha (Myzus persicae; [3]) [%]	Emax at 4 g/ha (Nezara viridula) [%]	efficacy (Ctenocephalides felis [1]) [%]	pest or weed control at 100 ppm (Lucilia cuprina) [%]	Emax at 100 g/ha (Tetranychus urticae; [4]) [%]	efficacy (kill) (Ctenocephalides felis [2]) [%]	Emax at 4 g/ha (Phaedon cochleariae; PHAECO, 4 g/ha, 7 dat, read-out: % efficacy) [%]	percent efficacy (larval mortality) at a fixed application rate at 20 g/ha (Phaedon cochleariae; PHAECO, 7 dat) [%]	percent efficacy (larval mortality) at a fixed application rate at 4 g/ha (Phaedon cochleariae; PHAECO, 4 g/ha, 7 dat) [%]	pest or weed control at 100 g/ha (Myzus persicae; 100 g/ha, 5 days (5 dat), read-out: efficacy) [%]	efficacy (Tetranychus urticae; 4 g/ha, after 6 days) [%]	Emax at 20 g/ha (Tetranychus urticae; Tetranychus urticae, 144 h, TETRUR, 20 g/ha, 6 dat, read-out: % efficacy) [%]
CCS(=O)(=O)c1ccc(NC(=O)N(C)C)nc1-c1nc2cc(C(F)(F)C(F)(F)F)nnc2n1C [Example I-10]	100	70	100	80	100	100	70	100						
CCS(=O)(=O)c1ccc(N(C)C(=O)NC)nc1-c1nc2cc(C(F)(F)C(F)(F)F)nnc2n1C [Example I-09]	100	70	100	70	100	100	70	100	83	100				
CCNC(=O)Nc1ccc(S(=O)(=O)CC)c(-c2nc3cc(C(F)(F)C(F)(F)F)nnc3n2C)n1 [Example I-13]	100		90	80	100	100		100		100	100			
CCS(=O)(=O)c1ccc(NC(=O)NC)nc1-c1nc2cc(C(F)(F)C(F)(F)F)nnc2n1C [Example I-08, 1-{5-(ethylsulfonyl)-6-[7-methyl-3-(pentafluoroethyl)-7H-imidazo[4,5-c]pyridazin-6-yl]pyridin-2-yl}-3-methylurea]	100		100	90		100	70	100				90	90	70
